From ChEMBL document CHEMBL1201862, “PubChem BioAssay data set” (2004)
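Step 1: Grow cells in 96-well plates. Step 2: Expose to compound for 48 hours at 5 concentrations. Step 3: Interpolate endpoints linearly; if unreached, use highest concentration. Abbreviation: GI50, concentration required for 50% inhibition of growth.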 Active and inactive are the calls of the source. Rule as the data show it: active = GI50 up to about 1.1 µM and inactive = higher.

Columns and labels:
Assay in all cases: inhibition of tumour cell growth, NCI panel, 48 h
786-0 = system: 786-0
A498 = system: A498
A549 = system: A549
ACHN = system: ACHN
BT-549 = system: BT-549
CAKI-1 = system: CAKI-1
CCRF-CEM = system: CCRF-CEM
COLO 205 = system: COLO 205
DU-145 = system: DU-145
EKVX = system: EKVX
HCC 2998 = system: HCC 2998
HCT-116 = system: HCT-116
HCT-15 = system: HCT-15
HL-60 = system: HL-60
HOP-62 = system: HOP-62
Hs-578T = system: Hs-578T
IGROV-1 = system: IGROV-1
K562 = system: K562
KM12 = system: KM12
LOX IMVI = system: LOX IMVI
M14 = system: M14
MCF7 = system: MCF7
MDA-MB-231 = system: MDA-MB-231
MDA-MB-435 = system: MDA-MB-435
MDA-N = system: MDA-N
MOLT-4 = system: MOLT-4
Malme-3M = system: Malme-3M
NCI-H226 = system: NCI-H226
NCI-H23 = system: NCI-H23
NCI-H460 = system: NCI-H460
NCI-H522 = system: NCI-H522
NCI/ADR-RES = system: NCI/ADR-RES
OVCAR-3 = system: OVCAR-3
OVCAR-4 = system: OVCAR-4
OVCAR-5 = system: OVCAR-5
OVCAR-8 = system: OVCAR-8
PC-3 = system: PC-3
RPMI-8226 = system: RPMI-8226
RXF 393 = system: RXF 393
SF-268 = system: SF-268
SF-295 = system: SF-295
SF-539 = system: SF-539
SK-MEL-28 = system: SK-MEL-28
SK-MEL-2 = system: SK-MEL-2
SK-MEL-5 = system: SK-MEL-5
SK-OV-3 = system: SK-OV-3
SN12C = system: SN12C
SNB-19 = system: SNB-19
SNB-75 = system: SNB-75
SR = system: SR
SW-620 = system: SW-620
T47D = system: T47D
TK-10 = system: TK-10
U-251 = system: U-251
UACC-257 = system: UACC-257
UACC-62 = system: UACC-62
UO-31 = system: UO-31
HT-29 = system: HT-29
HOP-92 = system: HOP-92

Measured: GI50

CCN1C(=O)C(C)S/C1=N\NC(=O)CSc1nc2ccccc2c(=O)n1CC (stereo not drawn)
> 100 µM: HCT-15
inactive: 786-0 > 100 µM | A498 > 100 µM | A549 > 100 µM | ACHN > 100 µM | BT-549 > 100 µM | CAKI-1 > 100 µM | CCRF-CEM > 100 µM | COLO 205 > 100 µM | DU-145 > 100 µM | EKVX > 100 µM | HCC 2998 > 100 µM | HCT-116 > 100 µM | HL-60 > 100 µM | HOP-62 > 100 µM | Hs-578T > 100 µM | IGROV-1 > 100 µM | K562 98.6 µM | KM12 > 100 µM | LOX IMVI > 100 µM | M14 > 100 µM | MCF7 > 100 µM | MDA-MB-231 > 100 µM | MDA-MB-435 > 100 µM | MDA-N > 100 µM | MOLT-4 > 100 µM | Malme-3M > 100 µM | NCI-H226 > 100 µM | NCI-H23 > 100 µM | NCI-H460 3.12 µM | NCI-H522 > 100 µM | NCI/ADR-RES > 100 µM | OVCAR-3 > 100 µM | OVCAR-4 92 µM | OVCAR-5 > 100 µM | OVCAR-8 > 100 µM | PC-3 > 100 µM | RPMI-8226 > 100 µM | RXF 393 > 100 µM | SF-268 90.6 µM | SF-295 > 100 µM | SF-539 > 100 µM | SK-MEL-28 > 100 µM | SK-MEL-2 > 100 µM | SK-MEL-5 > 100 µM | SK-OV-3 > 100 µM | SN12C > 100 µM | SNB-19 > 100 µM | SNB-75 > 100 µM | SR > 100 µM | SW-620 > 100 µM | T47D > 100 µM | TK-10 > 100 µM | U-251 > 100 µM | UACC-257 > 100 µM | UACC-62 > 100 µM | UO-31 72.9 µM

CC[C@H]1OC([C@H](O)C/C=C\C#C[Si](C)(C)C)C/C=C\C[C@H]1O[Si](C)(C)C(C)(C)C (stereo partly drawn)
> 100 µM: HCT-15
inactive: 786-0 > 100 µM | A498 > 100 µM | A549 > 100 µM | ACHN > 100 µM | BT-549 > 100 µM | CAKI-1 > 100 µM | CCRF-CEM 43.3 µM | COLO 205 > 100 µM | DU-145 > 100 µM | EKVX > 100 µM | HCC 2998 > 100 µM | HCT-116 > 100 µM | HOP-62 > 100 µM | HT-29 > 100 µM | Hs-578T > 100 µM | IGROV-1 > 100 µM | K562 > 100 µM | KM12 > 100 µM | LOX IMVI 19.4 µM | M14 > 100 µM | MCF7 51.4 µM | MDA-MB-231 > 100 µM | MDA-MB-435 > 100 µM | MDA-N > 100 µM | MOLT-4 > 100 µM | Malme-3M > 100 µM | NCI-H226 > 100 µM | NCI-H23 > 100 µM | NCI-H460 > 100 µM | NCI-H522 40.9 µM | NCI/ADR-RES > 100 µM | OVCAR-3 > 100 µM | OVCAR-4 > 100 µM | OVCAR-5 > 100 µM | OVCAR-8 > 100 µM | PC-3 > 100 µM | RPMI-8226 37.8 µM | RXF 393 > 100 µM | SF-268 > 100 µM | SF-295 > 100 µM | SK-MEL-28 > 100 µM | SK-MEL-2 > 100 µM | SK-MEL-5 > 100 µM | SK-OV-3 > 100 µM | SN12C > 100 µM | SNB-19 > 100 µM | SNB-75 > 100 µM | SR > 100 µM | SW-620 > 100 µM | T47D > 100 µM | U-251 > 100 µM | UACC-62 > 100 µM | UO-31 54.5 µM

N#C[C@@H](c1ccccn1)c1ncccc1[N+](=O)[O-]
> 100 µM: HCT-15
inactive: 786-0 > 100 µM | A498 > 100 µM | A549 > 100 µM | ACHN > 100 µM | BT-549 > 100 µM | CAKI-1 > 100 µM | CCRF-CEM > 100 µM | COLO 205 > 100 µM | DU-145 > 100 µM | EKVX > 100 µM | HCC 2998 > 100 µM | HCT-116 > 100 µM | HOP-62 > 100 µM | HT-29 > 100 µM | Hs-578T > 100 µM | IGROV-1 > 100 µM | K562 > 100 µM | LOX IMVI > 100 µM | M14 > 100 µM | MCF7 74 µM | MDA-MB-231 > 100 µM | MDA-MB-435 > 100 µM | MDA-N > 100 µM | MOLT-4 > 100 µM | Malme-3M > 100 µM | NCI-H23 > 100 µM | NCI-H460 > 100 µM | NCI-H522 > 100 µM | NCI/ADR-RES > 100 µM | OVCAR-3 > 100 µM | OVCAR-4 > 100 µM | OVCAR-5 > 100 µM | OVCAR-8 > 100 µM | PC-3 > 100 µM | RPMI-8226 > 100 µM | RXF 393 > 100 µM | SF-268 > 100 µM | SF-295 > 100 µM | SK-MEL-28 > 100 µM | SK-MEL-2 > 100 µM | SK-MEL-5 90.2 µM | SK-OV-3 > 100 µM | SN12C > 100 µM | SNB-19 > 100 µM | SNB-75 > 100 µM | SR > 100 µM | SW-620 > 100 µM | T47D > 100 µM | U-251 > 100 µM | UACC-62 > 100 µM | UO-31 > 100 µM

Cc1ccc(C(=O)N/N=C(\N=N\c2ccccc2Cl)c2ccc(N(C)C)cc2)cc1
30.6 µM: HCT-15
inactive: 786-0 48.3 µM | A549 50.6 µM | ACHN 13.3 µM | BT-549 29.3 µM | CAKI-1 30.5 µM | CCRF-CEM 16.6 µM | COLO 205 38.6 µM | DU-145 2.61 µM | EKVX 27.2 µM | HCC 2998 25.1 µM | HCT-116 29.2 µM | HL-60 14.1 µM | HOP-92 > 100 µM | HT-29 33.1 µM | Hs-578T > 100 µM | IGROV-1 > 100 µM | K562 17.1 µM | KM12 21.9 µM | LOX IMVI 43.6 µM | M14 42.7 µM | MCF7 28.2 µM | MDA-MB-231 52.6 µM | MDA-MB-435 10.5 µM | MDA-N 11.5 µM | MOLT-4 20 µM | NCI-H226 60.8 µM | NCI-H23 50.7 µM | NCI-H460 37.3 µM | NCI-H522 27.5 µM | NCI/ADR-RES 27.3 µM | OVCAR-3 30.3 µM | OVCAR-4 7.33 µM | OVCAR-5 68.4 µM | OVCAR-8 61.5 µM | PC-3 49 µM | RPMI-8226 23.7 µM | SF-268 > 100 µM | SF-295 28.8 µM | SF-539 21.4 µM | SK-MEL-28 > 100 µM | SK-MEL-2 54.6 µM | SK-MEL-5 21.3 µM | SK-OV-3 20.4 µM | SN12C > 100 µM | SNB-19 28.1 µM | SR 18.1 µM | SW-620 > 100 µM | T47D 2.64 µM | TK-10 > 100 µM | U-251 62.1 µM | UACC-257 27.5 µM | UACC-62 4.55 µM | UO-31 29.4 µM

CC1(C)C2CCC(O)(C2)C1N (stereo not drawn)
inactive: 786-0 > 100 µM | A549 > 100 µM | ACHN > 100 µM | BT-549 > 100 µM | CAKI-1 > 100 µM | CCRF-CEM > 100 µM | COLO 205 > 100 µM | DU-145 > 100 µM | EKVX > 100 µM | HCC 2998 > 100 µM | HCT-116 > 100 µM | HOP-62 > 100 µM | HOP-92 > 100 µM | HT-29 > 100 µM | Hs-578T > 100 µM | IGROV-1 > 100 µM | K562 > 100 µM | KM12 > 100 µM | LOX IMVI > 100 µM | M14 > 100 µM | MCF7 > 100 µM | MDA-MB-231 > 100 µM | MDA-MB-435 > 100 µM | MDA-N > 100 µM | MOLT-4 > 100 µM | Malme-3M > 100 µM | NCI-H226 > 100 µM | NCI-H23 > 100 µM | NCI-H460 > 100 µM | NCI/ADR-RES > 100 µM | OVCAR-3 > 100 µM | OVCAR-4 > 100 µM | OVCAR-5 > 100 µM | OVCAR-8 > 100 µM | PC-3 > 100 µM | RPMI-8226 > 100 µM | RXF 393 > 100 µM | SF-268 > 100 µM | SF-295 > 100 µM | SF-539 > 100 µM | SK-MEL-28 > 100 µM | SK-MEL-2 > 100 µM | SK-MEL-5 > 100 µM | SK-OV-3 > 100 µM | SN12C > 100 µM | SNB-19 > 100 µM | SNB-75 > 100 µM | SR > 100 µM | SW-620 > 100 µM | T47D > 100 µM | TK-10 > 100 µM | U-251 > 100 µM | UACC-257 > 100 µM | UACC-62 > 100 µM | UO-31 > 100 µM
> 100 µM: HCT-15
